Tested on: P12-Ichikawa
Assay: cell viability relative to DMSO control; higher = less cytotoxic
Conditions: 48 h
Procedure, shortened: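 Three leukemia lines were tested: NOMO1 and SEM at 500 cells/well and P12-Ichikawa at 1000 cells/well. Each was adapted for at least four passages in each medium and seeded in 5 μl in 1536-well plates, and library compounds in DMSO were pin-dosed from 47 μM to 0.79 nM in 11 threefold steps. After 48 h at 37°C, CellTiter-Glo One luminescence was read. Viability is a percentage relative to DMSO wells on each plate, with cell-free wells as background.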

SMILES	cell viability (RPMI 5 mM glucose + 10% dialyzed FBS, 0.000781 µM)	cell viability (RPMI 5 mM glucose + 10% dialyzed FBS, 0.00234 µM)	cell viability (RPMI 5 mM glucose + 10% dialyzed FBS, 0.00702 µM)	cell viability (RPMI 5 mM glucose + 10% dialyzed FBS, 0.0211 µM)	cell viability (RPMI 5 mM glucose + 10% dialyzed FBS, 0.0632 µM)	cell viability (RPMI 5 mM glucose + 10% dialyzed FBS, 0.19 µM)	cell viability (RPMI 5 mM glucose + 10% dialyzed FBS, 0.569 µM)	cell viability (RPMI 5 mM glucose + 10% dialyzed FBS, 1.71 µM)	cell viability (RPMI 5 mM glucose + 10% dialyzed FBS, 5.12 µM)	cell viability (RPMI 5 mM glucose + 10% dialyzed FBS, 15.4 µM)	cell viability (RPMI 5 mM glucose + 10% dialyzed FBS, 46.1 µM)	cell viability (HPLM + 10% dialyzed FBS, 0.000781 µM)	cell viability (HPLM + 10% dialyzed FBS, 0.00234 µM)	cell viability (HPLM + 10% dialyzed FBS, 0.00702 µM)	cell viability (HPLM + 10% dialyzed FBS, 0.0211 µM)	cell viability (HPLM + 10% dialyzed FBS, 0.0632 µM)	cell viability (HPLM + 10% dialyzed FBS, 0.19 µM)	cell viability (HPLM + 10% dialyzed FBS, 0.569 µM)	cell viability (HPLM + 10% dialyzed FBS, 1.71 µM)	cell viability (HPLM + 10% dialyzed FBS, 5.12 µM)	cell viability (HPLM + 10% dialyzed FBS, 15.4 µM)	cell viability (HPLM + 10% dialyzed FBS, 46.1 µM)	cell viability (RPMI 5 mM glucose + 10% FBS, 0.000781 µM)	cell viability (RPMI 5 mM glucose + 10% FBS, 0.00234 µM)	cell viability (RPMI 5 mM glucose + 10% FBS, 0.00702 µM)	cell viability (RPMI 5 mM glucose + 10% FBS, 0.0211 µM)	cell viability (RPMI 5 mM glucose + 10% FBS, 0.0632 µM)	cell viability (RPMI 5 mM glucose + 10% FBS, 0.19 µM)	cell viability (RPMI 5 mM glucose + 10% FBS, 0.569 µM)	cell viability (RPMI 5 mM glucose + 10% FBS, 1.71 µM)	cell viability (RPMI 5 mM glucose + 10% FBS, 5.12 µM)	cell viability (RPMI 5 mM glucose + 10% FBS, 15.4 µM)	cell viability (RPMI 5 mM glucose + 10% FBS, 46.1 µM)
C[C@@H]1CN[C@H]2[C@@H](C)[C@@]\3(CC[C@H]\4[C@@H]5C/C=C6/C[C@@H](O)CC[C@]6(C)[C@H]5CC4=C3C)O[C@@H]2C1	119%	125%	123%	121%	124%	115%	114%	114%	109%	101%	93.1%	–	–	–	–	–	–	–	–	–	–	–	–	–	–	–	–	–	–	–	–	–	–
CCCCCCCc1ccc(CCc2cccc(O)c2C(=O)O)cc1	–	–	–	–	–	–	–	–	–	–	–	122%	124%	126%	124%	119%	111%	123%	110%	108%	104%	90.2%	125%	121%	127%	129%	128%	119%	107%	111%	104%	97.7%	91.3%
